Experimental data as given in patent publication US20140343048A1, “6-DIFLUOROMETHYL-5,6-DIHYDRO-2H-[1,4]OXAZIN-3-AMINE DERIVATIVES” (Janssen Pharmacetuica NV, priority 2011, published 2014).

What was measured:
[1] = molecular target: recombinant BACE1 protein (Homo sapiens, UniProt P56817); test: Biochemical FRET based assay; settings: recombinant BACE1 1 μg/ml, 120 minutes, room temperature, pH 5.0; read-out: Biochemical FRET based assay pIC50 (converted)
From the text: This assay is a Fluorescence Resonance Energy Transfer Assay (FRET) based assay. The substrate for this assay is an APP derived 13 amino acids peptide that contains the ‘Swedish’ Lys-Met/Asn-Leu mutation of the amyloid precursor protein (APP) beta-secretase cleavage site. This substrate also contains two fluorophores: (7-methoxycoumarin-4-yl) acetic acid (Mca) is a fluorescent donor with excitation wavelength at 320 nm and emission at 405 nm and 2,4-Dinitrophenyl (Dnp) is a proprietary quencher acceptor. […] Upon cleavage by BACE1, the fluorophore Mca is separated from the quenching group Dnp, restoring the full fluorescence yield of the donor. The increase in fluorescence is linearly related to the rate of proteolysis.
Briefly in a 384-well format recombinant BACE1 protein in a final concentration of 1 μg/ml is incubated for 120 minutes at room temperature with 10 μm substrate in incubation buffer (40 mM Citrate buffer pH 5.0, 0.04% PEG, 4% DMSO) in the absence or presence of compound. Next the amount of proteolysis is directly measured by fluorescence measurement at T=0 and T=120 (excitation at 320 nm and emission at 405 nm). Results are expressed in RFU (Relative Fluorescence Units), as difference between T120 and T0.
From this an IC50 value (inhibitory concentration causing 50% inhibition of activity) can be obtained.

[2] = tested on: Abeta 1-42 produced and secreted by human neuroblastoma SKNBE2 cells expressing hAPP695; test: Cellular αLisa assay in SKNBE2 cells, Abeta 42; assay type: cell-based; settings: incubated for 18 hours, read-out: Cellular αLisa assay in SKNBE2 cells Abeta 42 pIC50 (converted)
Procedure: (§1) In two αLisa assays the levels of Abeta total and Abeta 1-42 produced and secreted into the medium of human neuroblastoma SKNBE2 cells are quantified. The assay is based on the human neuroblastoma SKNBE2 expressing the wild type Amyloid Precursor Protein (hAPP695). The compounds are diluted and added to these cells, incubated for 18 hours and then measurements of Abeta 1-42 and Abeta total are taken. Abeta total and Abeta 1-42 are measured by sandwich αLisa. αLisa is a sandwich assay using biotinylated antibody AbN/25 attached to streptavidin coated beads and antibody Ab4G8 or cAb42/26 conjugated acceptor beads for the detection of Abeta total and Abeta 1-42 respectively. In the presence of Abeta total or Abeta 1-42, the beads come into close proximity. The excitation of the donor beads provokes the release of singlet oxygen molecules that trigger a cascade of energy transfer in the acceptor beads, resulting in light emission. Light emission is measured after 1 hour incubation (excitation at […] and emission at 615 nm).
(§2) A best-fit curve is fitted by a minimum sum of squares method to the plot of % Controlmin versus compound concentration. From this an IC50 value (inhibitory concentration causing 50% inhibition of activity) can be obtained.

[3] = tested on: Abeta total produced and secreted by human neuroblastoma SKNBE2 cells expressing hAPP695; test: Cellular αLisa assay in SKNBE2 cells, Abeta total; assay type: cell-based; settings: incubated for 18 hours, read-out: Cellular αLisa assay in SKNBE2 cells Abetatotal pIC50 (converted)
Procedure: as §1, §2

[4] = tested on: Aβ42 in the soluble fraction of brain homogenates; test: In vivo efficacy: brain soluble Aβ42 lowering (ELISA); parameters: species or system mouse; settings: p.o., non-transgenic animals
From the text: (§3) To determine whether acute administration of an Aβ42 peptide lowering agent would reduce Aβ peptide levels in vivo, non-transgenic rodents, e.g. mice or rats were used. Animals treated with the Aβ peptide lowering agent were examined and compared to those untreated or treated with vehicle and brain levels of soluble Aβ42 and total Aβ were quantitated by standard techniques, for example, using ELISA. Treatment periods varied from hours (h) to days and were adjusted based on the results of the Aβ42 lowering once a time course of onset of effect could be established.
(§4) A typical protocol for measuring Aβ42 lowering in vivo is shown but it is only one of many variations that could be used to optimize the levels of detectable Aβ. For example, Aβ peptide lowering compounds were formulated in 20% hydroxypropyl β cyclodextrin. The Aβ peptide lowering agents were administered as a single oral dose (p.o.) or a single subcutaneous dose (s.c.) to overnight fasted animals. After a certain time, usually 2 or 4 h (as indicated in Table 7), the animals were sacrificed and A1342 levels were analysed.
(§5) Blood was collected by decapitation and exsanguinations in EDTA-treated collection tubes. […] The left hemisphere was stored at −18° C. for quantitative analysis of test compound levels. […]
(§6) Mouse brains from non-transgenic animals were resuspended in 8 volumes of 0.4% DEA (diethylamine)/50 mM NaCl containing protease inhibitors (Roche-11873580001 or 04693159001) per gram of tissue, e.g. for 0.158 g brain, add 1.264 ml of 0.4% DEA. […] Nine parts of supernatant were neutralized with 1 part 0.5 M Tris-HCl pH 6.8 and used to quantify Aβtotal and Aβ42.
(§7) To quantify the amount of Aβtotal and Aβ42 in the soluble fraction of the brain homogenates, Enzyme-Linked-Immunosorbent-Assays were used. […] Following this incubation and subsequent wash steps the ELISA for Aβ42 quantification was finished by addition of Quanta Blu fluorogenic peroxidase substrate according to the manufacturer's instructions (Pierce Corp., Rockford, Ill.). A reading was performed after 10 to 15 min (excitation 320 nm/emission 420 nm).

[5] = tested on: Aβtotal in the soluble fraction of brain homogenates; test: In vivo efficacy: brain soluble Aβtotal lowering (ELISA); parameters: species or system mouse; settings: p.o., non-transgenic animals
From the text: as §3, §4, §5, §6
as §7, with “nm). […]” for “nm).”

[6] = 30 mpk, 4 h after administration
[7] = 10 mpk, 2 h after administration

recombinant BACE1 protein, sequence (P56817 46-501): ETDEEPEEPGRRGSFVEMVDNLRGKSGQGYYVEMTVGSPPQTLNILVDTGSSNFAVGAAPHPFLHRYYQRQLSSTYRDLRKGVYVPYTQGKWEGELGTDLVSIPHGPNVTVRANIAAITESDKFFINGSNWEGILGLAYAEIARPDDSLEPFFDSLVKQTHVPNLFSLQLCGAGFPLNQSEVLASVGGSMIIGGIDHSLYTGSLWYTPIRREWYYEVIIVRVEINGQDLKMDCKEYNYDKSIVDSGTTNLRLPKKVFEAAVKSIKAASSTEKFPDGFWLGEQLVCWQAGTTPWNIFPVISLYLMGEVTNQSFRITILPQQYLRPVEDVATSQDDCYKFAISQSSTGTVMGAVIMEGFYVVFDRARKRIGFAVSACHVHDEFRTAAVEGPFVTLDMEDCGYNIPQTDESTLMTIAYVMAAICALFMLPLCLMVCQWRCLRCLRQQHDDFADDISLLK

SMILES: C[C@]1(c2cc(NC(=O)c3ccc(C#N)cn3)ccc2F)N=C(N)COC1C(F)F (single isomer, unassigned) [Compound 7, N-{3-[(2R*,3R)-5-Amino-2-(difluoromethyl)-3-methyl-3,6-dihydro-2H-1,4-oxazin-3-yl]-4-fluorophenyl}-5-cyanopyridine-2-carboxamide]
- IC50 [1]: 53.7 nM
- IC50 [2]: 3.47 nM
- IC50 [3]: 3.09 nM
- Aβ42 (% Ctrl)_Mean [4, 6]: 53 % Ctrl
- Aβtotal (% Ctrl)_Mean [5, 6]: 55 % Ctrl
- melting point: 230.9 °C

SMILES: CC1(c2cc(NC(=O)c3ccc(Cl)cn3)ccc2F)N=C(N)COC1C(F)F (single isomer, unassigned) [Compound 6, N-{3-[(2R*3R)-5-Amino-2-(difluoromethyl)-3-methyl-3,6-dihydro-2H-1,4-oxazin-3-yl]-4-fluorophenyl}-5-chloropyridine-2-carboxamide]
- IC50 [2]: 3.31 nM
- IC50 [3]: 3.39 nM

SMILES: C[C@]1(c2cc(-c3cncnc3)ccc2F)N=C(N)COC1C(F)F (single isomer, unassigned) [Compound 4, (5R,6R*)-6-(Difluoromethyl)-5-(2-fluoro-5-pyrimidin-5-ylphenyl)-5-methyl-5,6-dihydro-2H-1,4-oxazin-3-amine]
- IC50 [1]: 427 nM
- IC50 [2]: 129 nM
- IC50 [3]: 129 nM

SMILES: C[C@]1(c2cc(NC(=O)c3ccc(F)cn3)ccc2F)N=C(N)COC1C(F)F (single isomer, unassigned) [Compound 2, N-{3-[(2R*,3R)-5-Amino-2-(difluoromethyl)-3-methyl-3,6-dihydro-2H-1,4-oxazin-3-yl]-4-fluorophenyl}-5-fluoropyridine-2-carboxamide]
- IC50 [1]: 35.5 nM
- IC50 [2]: 8.51 nM
- IC50 [3]: 8.51 nM
- Aβ42 (% Ctrl)_Mean [4, 7]: 91 % Ctrl
- Aβtotal (% Ctrl)_Mean [5, 7]: 96 % Ctrl
- melting point: 205.7 °C

SMILES: COc1cnc(C(=O)Nc2ccc(F)c([C@@]3(C)N=C(N)COC3C(F)F)c2)cn1 (single isomer, unassigned) [Compound 1, N-{3-[(2R*,3R)-5-Amino-2-(difluoromethyl)-3-methyl-3,6-dihydro-2H-1,4-oxazin-3-yl]-4-fluorophenyl}-5-methoxypyrazine-2-carboxamide]
- IC50 [1]: 35.5 nM
- IC50 [2]: 4.17 nM
- IC50 [3]: 4.27 nM
- Aβ42 (% Ctrl)_Mean [4, 7]: 62 % Ctrl
- Aβtotal (% Ctrl)_Mean [5, 7]: 59 % Ctrl

SMILES: C[C@]1(c2cccc(-c3cncnc3)c2)N=C(N)COC1C(F)F (single isomer, unassigned) [Compound 5, (5R,6R*)-6-(Difluoromethyl)-5-methyl-5-(3-pyrimidin-5-ylphenyl)-5,6-dihydro-2H-1,4-oxazin-3-amine]
- IC50 [1]: 457 nM
- IC50 [2]: 117 nM
- IC50 [3]: 117 nM

SMILES: CCC1(c2cc(NC(=O)c3cnc(OC)cn3)ccc2F)N=C(N)COC1C(F)F (racemic) [Compound 3, cis-rac-N-{3-[5-Amino-2-(difluoromethyl)-3-ethyl-3,6-dihydro-2H-1,4-oxazin-3-yl]-4-fluorophenyl}-5-methoxypyrazine-2-carboxamide]
- IC50 [1]: 63.1 nM
- IC50 [2]: 4.17 nM
- IC50 [3]: 3.72 nM
